# Measured values as given in patent US8148368B2, “7-nitro-2-(3-nitro phenyl)-4H-3,1-benzoxazin-4-one or derivatives thereof for treating or preventing antiviral infections” (priority 2010, dated 2012).
# Assays:
# [1] = tested on: HCV sub-genomic replicon in FCA-4 cells; assay: Antiviral effect in FCA-4 HCV 1b sub-genomic replicon cells, RT-PCR of HCV RNA; assay type: cell-based, hepatitis C virus
# Source text: FCA-4 sub genomic replicon was bicistronic construct composed of the HCV IRES (nucleotides 1 to 377 of the 5′NCR); the neomycin phosphotransferase (neo) gene; the encephalomyocarditis IRES, which mediates the translation of HCV nonstructural proteins NS3 through NS5; and the 3′NCR as shown in FIG. 2. […] FCA-4 sub-genomic replicon consists of single adaptive mutation and a deletion of a serine residue at position 1176 (Guo et al, 2001).
# The bicistronic RNA molecule contains the HCV IRES and a few core-coding sequences, which are followed by neomycin phosphotransferase gene (Neor). These sequences are followed by the encephalomyocarditis virus IRES placed in front of HCV sequences encoding nonstructural protein NS3 to NS5B, terminating at the HCV 3NCR.
# To determine the antiviral effect against HCV, FCA 4 cells were seeded in six well plates. After 24 h, media containing 20 μM of test compound was added to the plates. Cells were incubated at 37° C. in CO2 incubator for additional 48 h. At the end of the incubation, cells were harvested, RNA was extracted and cDNA were generated by oligo dT priming cDNA was amplified by PCR using primers specific to the 5′ UTR and NS5B gene of HCV. Amplification of GAPDH mRNA served as an internal control.
# [2] = tested on: HCV 3a genotype in MDBK cells; assay: Combination with interferon-α against HCV 3a genotype in MDBK cells, real time quantitative RT-PCR; assay type: cell-based, hepatitis C virus; conditions: interferon-α 5 IU/well, 6 hrs pre-incubation, HCV 3a 2×10^4 copies per well, 18 hrs
# Method: Surprising synergism was recorded when Compound 1 was combined with Interferon alpha. […] MDBK cells were incubated for 6 hrs with compounds and interferon alone, or combination of compound and interferon in a 96-well plat. After 6 hrs cells were infected with 2×10^4 copies of HCV 3a genotype per well and incubated for additional 18 hrs. At the end of incubation period, total RNA was extracted by Gentra kit, and the levels of HCV RNA remaining were determined, by real time Quantitative RT-PCR assay and are shown as percentage of HCV RNA survival in cells. Results are represented as the average and standard error for three independent experiments.
# HCV = conditions: ribavirin alone; cited from earlier work
SMILES,"GAPDH mRNA expression (internal control) ([1]; 20 μM, 48 h, FCA 4 cells)","HCV RNA expression ([1]; 20 μM, 48 h, FCA 4 cells, RT-PCR (5′ UTR and NS5B primers))",antiviral suppression in relation to cytotoxicity ([1]; FCA4 cells),"concentration showing maximum reduction of HCV expression ([1]; dose dependent, FCA4 sub-genomic replicon, 48 h, FIG. 3)",effect of combination with interferon-α on HCV RNA [2],patients with serum amino transferase levels reduced to normal (HCV)
"O=c1oc(-c2cccc([N+](=O)[O-])c2)nc2cc([N+](=O)[O-])ccc12 [Compound 1, 7-nitro-2-(3-nitrophenyl)-4H-3,1-benzoxazin-4-one]",remains unaffected,inhibited HCV RNA expression significantly,independent of cytotoxicity,10 µM,synergistic effect,–
"NC(=O)c1ncn([C@@H]2O[C@H](CO)[C@@H](O)[C@H]2O)n1 [Ribavirin, 1-β-D-ribofuranosyl-1-1,2,4-triazole-3-carboxamide]",–,–,–,–,–,40%
